Assays:
barnyardgrass [1] = assay: Test A preemergence; assay type: in vivo, Echinochloa crus-galli; details: for Plant response rating, Barnyardgrass: 31 g ai/ha, 0 to 100 scale where 0 is no effect and 100 is complete control, visual, approximately 10 days; for Barnyardgrass plant response rating (0 to 100 scale, 0 is no effect, 100 is complete control): 125 g ai/ha
Procedure, shortened: (§1)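 Visual 0–100 rating (100 = complete control) taken about 10 d post-treatment relative to untreated checks. Preemergence: directed soil spray on sown loam/sand pots. Postemergence: seedlings 2–10 cm, 1–2 leaf. Non-phytotoxic solvent formulation with surfactant.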

kochia [2] = assay: Test A preemergence; assay type: in vivo, Kochia scoparia; details: for Plant response rating, Kochia: 31 g ai/ha, 0 to 100 scale where 0 is no effect and 100 is complete control, visual, approximately 10 days; for Kochia plant response rating (0 to 100 scale): 125 g ai/ha
Procedure, shortened: as §1

ragweed [3] = assay: Test A preemergence; assay type: in vivo, Ambrosia elatior; details: for Plant response rating, Ragweed: 31 g ai/ha, 0 to 100 scale where 0 is no effect and 100 is complete control, visual, approximately 10 days; for Ragweed plant response rating (0 to 100 scale): 125 g ai/ha
Procedure, shortened: as §1

Italian ryegrass [4] = assay: Test A preemergence; assay type: in vivo, Lolium multiflorum; details: for Plant response rating, Ryegrass, Italian: 31 g ai/ha, 0 to 100 scale where 0 is no effect and 100 is complete control, visual, approximately 10 days; for Ryegrass, Italian plant response rating (0 to 100 scale): 125 g ai/ha
Procedure, shortened: as §1

giant foxtail [5] = assay: Test A preemergence; assay type: in vivo, Setaria faberii; details: for Plant response rating, Foxtail, Giant: 31 g ai/ha, 0 to 100 scale where 0 is no effect and 100 is complete control, visual, approximately 10 days; for Foxtail, Giant plant response rating (0 to 100 scale): 125 g ai/ha
Procedure, shortened: as §1

pigweed [6] = assay: Test A preemergence; assay type: in vivo, Amaranthus retroflexus; details: for Plant response rating, Pigweed: 31 g ai/ha, 0 to 100 scale where 0 is no effect and 100 is complete control, visual, approximately 10 days; for Pigweed plant response rating (0 to 100 scale): 125 g ai/ha
Procedure, shortened: as §1

barnyardgrass [7] = assay: Test A postemergence; assay type: in vivo, Echinochloa crus-galli; details: 0 to 100 scale, 0 no effect, 100 complete control
Procedure, shortened: as §1

kochia [8] = assay: Test A postemergence; assay type: in vivo, Kochia scoparia; details: 0 to 100 scale, 0 no effect, 100 complete control
Procedure, shortened: as §1

ragweed [9] = assay: Test A postemergence; assay type: in vivo, Ambrosia elatior; details: 0 to 100 scale, 0 no effect, 100 complete control
Procedure, shortened: as §1

Italian ryegrass [10] = assay: Test A postemergence; assay type: in vivo, Lolium multiflorum; details: 0 to 100 scale, 0 no effect, 100 complete control
Procedure, shortened: as §1

giant foxtail [11] = assay: Test A postemergence; assay type: in vivo, Setaria faberii; details: 0 to 100 scale, 0 no effect, 100 complete control
Procedure, shortened: as §1

pigweed [12] = assay: Test A postemergence; assay type: in vivo, Amaranthus retroflexus; details: 0 to 100 scale, 0 no effect, 100 complete control
Procedure, shortened: as §1

wheat = assay: Test A postemergence; assay type: in vivo, Triticum aestivum; details: 0 to 100 scale, 0 no effect, 100 complete control
Procedure, shortened: as §1

corn = assay: Test A postemergence; assay type: in vivo, Zea mays; details: 0 to 100 scale, 0 no effect, 100 complete control
Procedure, shortened: as §1

blackgrass = assay: Test A postemergence; assay type: in vivo, Alopecurus myosuroides; details: 0 to 100 scale, 0 no effect, 100 complete control
Procedure, shortened: as §1

galium = assay: Test A postemergence; assay type: in vivo, Galium aparine; details: 0 to 100 scale, 0 no effect, 100 complete control
Procedure, shortened: as §1

rice = assay: Test B flooded paddy test; assay type: in vivo, Oryza sativa; details: Flood, 250 g ai/ha; 0 to 100 scale where 0 is no effect and 100 is complete control
Procedure, shortened: (§2)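 2-leaf stage plants; pots flooded to 3 cm, compound added to paddy water, depth maintained. Greenhouse 13–15 d. Visual rating vs untreated controls, 0 (no effect) to 100 (complete control); dash = no result.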

sedge, umbrella = assay: Test B flooded paddy test; assay type: in vivo, Cyperus difformis; details: Flood, 250 g ai/ha; 0 to 100 scale where 0 is no effect and 100 is complete control
Procedure, shortened: as §2

Heteranthera limosa = assay: Test B flooded paddy test; assay type: in vivo; details: Flood, 250 g ai/ha; 0 to 100 scale where 0 is no effect and 100 is complete control
Procedure, shortened: as §2

barnyardgrass [13] = assay: Test B flooded paddy test; assay type: in vivo, Echinochloa crus-galli; details: Flood, 250 g ai/ha; 0 to 100 scale where 0 is no effect and 100 is complete control
Procedure, shortened: as §2

Row | SMILES | Plant response rating, Barnyardgrass (barnyardgrass [1]) | Barnyardgrass plant response rating (0 to 100 scale, 0 is no effect, 100 is complete control) (barnyardgrass [1]) | Plant response rating, Kochia (kochia [2]) | Kochia plant response rating (0 to 100 scale) (kochia [2]) | Plant response rating, Ragweed (ragweed [3]) | Ragweed plant response rating (0 to 100 scale) (ragweed [3]) | Plant response rating, Ryegrass, Italian (Italian ryegrass [4]) | Ryegrass, Italian plant response rating (0 to 100 scale) (Italian ryegrass [4]) | Plant response rating, Foxtail, Giant (giant foxtail [5]) | Foxtail, Giant plant response rating (0 to 100 scale) (giant foxtail [5]) | Plant response rating, Pigweed (pigweed [6]) | Pigweed plant response rating (0 to 100 scale) (pigweed [6]) | Plant response rating, Barnyardgrass (barnyardgrass [7]; 31 g ai/ha) | Plant response rating, Barnyardgrass (barnyardgrass [7]; 125 g ai/ha) | Plant response rating, Kochia (kochia [8]; 31 g ai/ha) | Plant response rating, Kochia (kochia [8]; 125 g ai/ha) | Plant response rating, Ragweed (ragweed [9]; 31 g ai/ha) | Plant response rating, Ragweed (ragweed [9]; 125 g ai/ha) | Plant response rating, Ryegrass, Italian (Italian ryegrass [10]; 31 g ai/ha) | Plant response rating, Ryegrass, Italian (Italian ryegrass [10]; 125 g ai/ha) | also measured
1 | Clc1cnc(Oc2ccccc2-n2cccc2)nc1 [Compound 269] | 0 | 0 | 0 | 0 | 0 | 0 | 0 | 0 | 0 | 0 | 0 | 0 | 0 | 0 | 0 | 0 | 0 | 0 | 0 | 0 | Plant response rating, Foxtail, Giant (giant foxtail [11]; 31 g ai/ha): 0; Plant response rating, Foxtail, Giant (giant foxtail [11]; 125 g ai/ha): 0; Plant response rating, Pigweed (pigweed [12]; 31 g ai/ha): 0; Plant response rating, Pigweed (pigweed [12]; 125 g ai/ha): 0; Plant response rating, Wheat (wheat; 31 g ai/ha): 0; Plant response rating, Wheat (wheat; 125 g ai/ha): 0; Plant response rating, Corn (corn; 31 g ai/ha): 0; Plant response rating, Corn (corn; 125 g ai/ha): 0; Plant response rating, Blackgrass (blackgrass; 31 g ai/ha): 0; Plant response rating, Blackgrass (blackgrass; 125 g ai/ha): 0; Plant response rating, Galium (galium; 31 g ai/ha): 0; Plant response rating, Galium (galium; 125 g ai/ha): 0; Plant response rating, Rice (rice): 0; Plant response rating, Sedge, Umbrella (sedge, umbrella): 0; Plant response rating, Ducksalad (Heteranthera limosa): 0; Plant response rating, Barnyardgrass (barnyardgrass [13]): 0
2 | Fc1cccc(Oc2ncc(Cl)cn2)c1-n1cc(-c2ccsc2)nn1 [Compound 277] | 0 | 0 | 0 | 0 | 0 | 0 | 0 | 0 | 30 | 70 | 30 | 60 | 20 | 40 | 60 | 70 | 50 | 60 | 30 | 50 | Plant response rating, Foxtail, Giant (giant foxtail [11]; 31 g ai/ha): 40; Plant response rating, Foxtail, Giant (giant foxtail [11]; 125 g ai/ha): 70; Plant response rating, Pigweed (pigweed [12]; 31 g ai/ha): 60; Plant response rating, Pigweed (pigweed [12]; 125 g ai/ha): 70; Plant response rating, Wheat (wheat; 31 g ai/ha): 0; Plant response rating, Wheat (wheat; 125 g ai/ha): 0; Plant response rating, Corn (corn; 31 g ai/ha): 0; Plant response rating, Corn (corn; 125 g ai/ha): 20; Plant response rating, Blackgrass (blackgrass; 31 g ai/ha): 30; Plant response rating, Blackgrass (blackgrass; 125 g ai/ha): 50; Plant response rating, Galium (galium; 31 g ai/ha): 100; Plant response rating, Galium (galium; 125 g ai/ha): 100; Plant response rating, Rice (rice): 0; Plant response rating, Sedge, Umbrella (sedge, umbrella): 80; Plant response rating, Ducksalad (Heteranthera limosa): 80; Plant response rating, Barnyardgrass (barnyardgrass [13]): 0
